The text below walks through data of US11066414B2, “Cot modulators and methods of use thereof” (Gilead Sciences, Inc., priority 2015, dated 2021).

One assay deals with TNFα. Briefly: Cot Monocyte TNFα Cell Based Assay.
In the next assay the target is Human Cot (Homo sapiens (Human), UniProt P41279). Briefly: High Throughput Cot Biochemical Assay.
[1] abbreviates: Homo sapiens, Monocyte, read-out: EC50 TNF, LPS-stimulated human monocytes, TNFα.
The mark [2] stands for this setting: IC50 HTRF, Cot HTRF (TR-FRET) biochemical assay.

Where two headings read alike, the source gives them in different places.

Human Cot, sequence (P41279 30-397): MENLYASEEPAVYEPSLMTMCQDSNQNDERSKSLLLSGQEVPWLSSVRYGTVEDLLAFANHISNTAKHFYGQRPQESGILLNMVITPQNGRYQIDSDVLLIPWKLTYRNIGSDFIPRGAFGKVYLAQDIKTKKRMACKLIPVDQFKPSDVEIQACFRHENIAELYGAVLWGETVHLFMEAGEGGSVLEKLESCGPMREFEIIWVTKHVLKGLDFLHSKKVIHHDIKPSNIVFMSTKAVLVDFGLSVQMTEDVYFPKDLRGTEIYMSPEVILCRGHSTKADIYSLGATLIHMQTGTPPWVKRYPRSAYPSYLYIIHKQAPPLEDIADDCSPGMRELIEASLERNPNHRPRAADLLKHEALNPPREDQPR

In the case of `CCN1CCC(n2cc([C@@H](Nc3cc(Cl)c4ncc(C#N)c(Nc5ccc(F)c(Cl)c5)c4c3)c3cc(C#N)cs3)nn2)CC1` [Example 372, (R)-8-chloro-4-((3-chloro-4-fluorophenyl)amino)-6-(((4-cyanothiophen-2-yl)(1-(1-ethylpiperidin-4-yl)-1H-1,2,3-triazol-4-yl)methyl)-amino)quinoline-3-carbonitrile], in the assay on TNFα (setting [1]), the EC50 (in general, the midpoint of the concentration-response curve) worked out at 81 nM. Half-maximal inhibition against Human Cot (setting [2]) (IC50) was put at 2 nM.
The corresponding values for `CC[C@@H](Nc1c(C#N)cnc2c(Cl)cc(N[C@H](c3cn(C4(C(F)F)CC4)nn3)c3ccc(F)nc3C)cc12)c1ccccc1` [Example 723, 8-chloro-6-(((S)-(1-(1-(difluoromethyl)cyclopropyl)-1H-1,2,3-triazol-4-yl)(6-fluoro-2-methylpyridin-3-yl)methyl)amino)-4-(((R)-1-phenyl-propyl)amino)quinoline-3-carbonitrile] are 84 nM and 4 nM.
The corresponding values for `Cc1nc(F)ccc1[C@H](Nc1cc(Cl)c2ncc(C#N)c(NCC(C)(C)C)c2c1)c1cn(CC2(C)CC2)nn1` [Example 764, (S)-8-chloro-6-(((6-fluoro-2-methylpyridin-3-yl)(1-((1-methylcyclopropyl)-methyl)-1H-1,2,3-triazol-4-yl)methyl)amino)-4-(neopentylamino)quinoline-3-carbonitrile] are 46 nM and 4 nM.
In the case of `[2H][C@](Nc1cc(C#N)c2ncc(C#N)c(N[C@H](CC#N)c3ccccc3)c2c1)(c1ccc(F)nc1)c1cn(C2CC2)nn1` [Example 100, 4-(((R)-2-cyano-1-phenylethyl)amino)-6-(((S)-(1-cyclopropyl-1H-1,2,3-triazol-4-yl)(6-fluoropyridin-3-yl)methyl-d)amino)quinoline-3,8-dicarbonitrile], the EC50 in the assay with TNFα (setting [1]) amounted to 142 nM. Further, the IC50 (as a rule, the concentration that inhibits the measured activity by half) on Human Cot (setting [2]) was found to be 3 nM.
For `Cc1ncsc1[C@H](Nc1cc(Cl)c2ncc(C#N)c(Nc3ccc(Cl)c(Cl)c3F)c2c1)c1cn(C(C)C)nn1` [Example 235, (R)-8-chloro-4-((3,4-dichloro-2-fluorophenyl)amino)-6-(((1-isopropyl-1H-1,2,3-triazol-4-yl)(4-methylthiazol-5-yl)methyl)amino)quinoline-3-carbonitrile], in that order: 370 nM and 17 nM.
For `CC(C)(C)CNc1c(C#N)cnc2c(C#N)cc(N[C@H](c3cn(C4(C(N)=O)CCC4)nn3)c3cccc4ncccc34)cc12` [Example 576, (S)-1-(4-(((3,8-dicyano-4-(neopentyl-amino)quinolin-6-yl)amino)(quinolin-5-yl)methyl)-1H-1,2,3-triazol-1-yl)cyclobutane-1-carboxamide], in that order: 433 nM and 1 nM.
For `[2H]C(Nc1cc(Cl)c2ncc(C#N)c(NCC(C)(C)C)c2c1)(c1cn(C2CC2)nn1)c1ccc(F)nc1F` (centres unmarked) [Example 103, 8-chloro-6-(((1-cyclopropyl-1H-1,2,3-triazol-4-yl)(2,6-difluoropyridin-3-yl)methyl-d)amino)-4-(neopentylamino)quinoline-3-carbonitrile], in that order: 133 nM and 3 nM.
As for `Cc1nc(F)ccc1[C@H](Nc1cc(C#N)c2ncc(C#N)c(NCC(C)(C)C(F)(F)F)c2c1)c1nnn([C@@H](C)CF)c1F` [Example 858, 6-(((S)-(5-fluoro-1-((S)-1-fluoropropan-2-yl)-1H-1,2,3-triazol-4-yl)(6-fluoro-2-methylpyridin-3-yl)methyl)amino)-4-((3,3,3-trifluoro-2,2-dimethylpropyl)amino)quinoline-3,8-dicarbonitrile], the EC50 in the assay on TNFα (Homo sapiens, Monocyte, read-out: EC50 TNF, LPS-stimulated human monocytes, TNFα TR-FRET) is 44 nM. Further, at Human Cot (IC50 HTRF, Cot HTRF (TR-FRET KinEASE) biochemical assay, 400 μM ATP), half-maximal inhibition (IC50) was put at 7 nM.
Turning to `CCN1CCC(n2cc(C(Nc3cc(Cl)c4ncc(C#N)c(Nc5ccc(F)c(Cl)c5)c4c3)c3cncnc3)nn2)CC1` (centres unmarked) [Example 366, 8-chloro-4-((3-chloro-4-fluorophenyl)amino)-6-(((1-(1-ethylpiperidin-4-yl)-1H-1,2,3-triazol-4-yl)(pyrimidin-5-yl)methyl)amino)-quinoline-3-carbonitrile], the EC50 with TNFα (setting [1]) stood at 336 nM. At Human Cot (setting [2]), this compound yielded an IC50 of 5 nM.
The corresponding values for `CC(C)n1cc([C@@H](Nc2cc(Cl)c3ncc(C#N)c(Nc4ccc(F)c(Cl)c4)c3c2)c2cnco2)nn1` [Example 298, (R)-8-chloro-4-((3-chloro-4-fluoro-phenyl)amino)-6-(((1-isopropyl-1H-1,2,3-triazol-4-yl)(oxazol-5-yl)methyl)-amino)quinoline-3-carbonitrile] are 1500 nM and 39 nM.
The corresponding values for `N#Cc1cnc2c(Cl)cc(N[C@@H](C3=CCOCC3)c3c[nH]nn3)cc2c1Nc1ccc(Cl)c(Cl)c1F` [Example 211, (S)-8-chloro-4-((3,4-dichloro-2-fluorophenyl)amino)-6-(((3,6-dihydro-2H-pyran-4-yl)(1H-1,2,3-triazol-4-yl)methyl)amino)quinoline-3-carbonitrile] are 544 nM and 16 nM.
Take `[2H][C@](Nc1cc(Cl)c2ncc(C#N)c(Nc3cnc(F)c(F)c3)c2c1)(c1cccnc1)c1c[nH]nn1` [Example 164, (S)-8-chloro-4-((5,6-difluoropyridin-3-yl)amino)-6-((pyridin-3-yl(1H-1,2,3-triazol-4-yl)methyl-d)amino)quinoline-3-carbonitrile]: the EC50 in the assay on TNFα (setting [1]) turned out to be 1800 nM. For the same compound, 5 nM corresponded to half-maximal inhibition on Human Cot (setting [2]) (IC50).
For `N#Cc1cnc2c(Cl)cc(N[C@@H](c3cccnc3)c3cn(CCOCCO)nn3)cc2c1Nc1ccc(F)c(Cl)c1` [Example 341, (S)-8-chloro-4-((3-chloro-4-fluorophenyl)amino)-6-(((1-(2-(2-hydroxyethoxy)ethyl)-1H-1,2,3-triazol-4-yl)(pyridin-3-yl)methyl)-amino)quinoline-3-carbonitrile], in that order: 843 nM and 6 nM.
Consider `CC(C)(C)N1CCC(n2cc([C@@H](Nc3cc(Cl)c4ncc(C#N)c(Nc5ccc(F)c(Cl)c5)c4c3)c3cnco3)nn2)CC1` [Example 299, (R)-6-(((1-(1-(tert-butyl)piperidin-4-yl)-1H-1,2,3-triazol-4-yl)(oxazol-5-yl)methyl)amino)-8-chloro-4-((3-chloro-4-fluorophenyl)amino)quinoline-3-carbonitrile], for which the EC50 in the assay on TNFα (setting [1]) was 739 nM. For the same compound, the IC50 against Human Cot (setting [2]) was 18 nM.
The corresponding values for `Cc1nc(F)ccc1[C@H](Nc1cc(Cl)c2ncc(C#N)c(NCC3(C(F)(F)F)CCC3)c2c1)c1cn(C2(C(F)F)CC2)nn1` [Example 731, (S)-8-chloro-6-(((1-(1-(difluoromethyl)cyclopropyl)-1H-1,2,3-triazol-4-yl)(6-fluoro-2-methylpyridin-3-yl)methyl)amino)-4-(((1-(trifluoromethyl)cyclobutyl)-methyl)amino)quinoline-3-carbonitrile] are 179 nM and 11 nM.
For `Cc1ccc([C@H](Nc2cc(Cl)c3ncc(C#N)c(NCC(C)(C)C)c3c2)c2cn(C3(C(F)(F)F)CC3)nn2)c(F)n1` [Example 688, (S)-8-chloro-6-(((2-fluoro-6-methylpyridin-3-yl)(1-(1-(trifluoromethyl)-cyclopropyl)-1H-1,2,3-triazol-4-yl)methyl)amino)-4-(neopentylamino)quinoline-3-carbonitrile], in that order: 437 nM and 30 nM.
The corresponding values for `Cc1nc(F)ccc1[C@H](Nc1cc(C#N)c2ncc(C#N)c(NCC(C)(C)C)c2c1)c1nnn(C2CC2)c1Cl` [Example 680, (S)-6-(((5-chloro-1-cyclopropyl-1H-1,2,3-triazol-4-yl)(6-fluoro-2-methylpyridin-3-yl)methyl)amino)-4-(neopentylamino)quinoline-3,8-dicarbonitrile] are 98 nM and 3 nM.
`[2H]C(Nc1cc(Cl)c2ncc(C#N)c(N[C@H](CC)c3ccccc3)c2c1)(c1cn(C2CC2)nn1)c1cc(C#N)cs1` (stereo partly drawn) [Example 123, 8-chloro-6-(((4-cyanothiophen-2-yl)(1-cyclopropyl-1H-1,2,3-triazol-4-yl)methyl-d)amino)-4-(((R)-1-phenylpropyl)amino)quinoline-3-carbonitrile]: the EC50 with TNFα (setting [1]) was determined as 193 nM. Further, 6 nM corresponded to half-maximal inhibition at Human Cot (setting [2]) (IC50).
With `N#Cc1cnc2c(Cl)cc(N[C@@H](c3cccnc3)c3cn(C4COC4)nn3)cc2c1NC1CCOCC1` [Example 201, (S)-8-chloro-6-(((1-(oxetan-3-yl)-1H-1,2,3-triazol-4-yl)(pyridin-3-yl)methyl)amino)-4-((tetrahydro-2H-pyran-4-yl)amino)quinoline-3-carbonitrile], in the assay on TNFα (setting [1]), the half-maximal effective concentration (EC50) came out at 5600 nM. On Human Cot (setting [2]), the IC50 worked out at 56 nM.
For `CC(C)(C)CNc1c(C#N)cnc2c(C#N)cc(N[C@H](c3cn(C4(C(F)(F)F)CC4)nn3)c3ccc(F)c4ncccc34)cc12` [Example 627, (S)-6-(((8-fluoroquinolin-5-yl)(1-(1-(trifluoro-methyl)cyclopropyl)-1H-1,2,3-triazol-4-yl)methyl)amino)-4-(neopentylamino)quinoline-3,8-dicarbonitrile], in that order: 46 nM and 4 nM.
Consider `Cc1nc(F)ccc1[C@H](Nc1cc(Cl)c2ncc(C#N)c(NCC(C)(C)C#N)c2c1)c1cn(C2(C(F)(F)F)CC2)nn1` [Example 633, (S)-8-chloro-4-((2-cyano-2-methylpropyl)amino)-6-(((6-fluoro-2-methylpyridin-3-yl)(1-(1-(trifluoromethyl)cyclopropyl)-1H-1,2,3-triazol-4-yl)methyl)amino)quinoline-3-carbonitrile], for which, in the assay on TNFα (setting [1]), the EC50 amounted to 267 nM. The compound further yielded an IC50 against Human Cot (setting [2]) of 28 nM.
As to `Cc1nc(F)ccc1[C@H](Nc1cc(Cl)c2ncc(C#N)c(NCC(C)(C)C)c2c1)c1nnn(C2CC2)c1I` [Example 643, (S)-8-chloro-6-(((1-cyclopropyl-S-iodo-1H-1,2,3-triazol-4-yl)(6-lluoro-2-methylpyridin-3-yl)methyl)amino)-4-(neopentylamino)quinoline-3-carbonitrile], the 50% effective concentration (EC50) in the assay with TNFα (read-out: EC50 TNF, LPS-stimulated human monocytes, TNFα) came to 1000 nM. For the same compound, the IC50 on Human Cot (read-out: IC50 HTRF, Cot HTRF (TR-FRET) biochemical assay) came to 5 nM.
